For two compounds, IC50 results are on record in patent US20260224536A1, “ARYL HETEROCYCLIC KV1.3 INHIBITOR, PREPARATION METHOD THEREFOR, AND USE THEREOF” (SHANGHAI SHENSHI WISE TECHNOLOGY CO., LTD., priority 2022, published 2026).

What all share (format): cell-based
In one assay the target is T1, Kv1.1 potassium channel (Homo sapiens, UniProt Q09470).
T1 construct: expressed in transfected cells
Nature of the assay: Whole-cell patch-clamp assay for inhibitory activity against Kv1.1 (steady state current). Conditions: HEK293 cells stably expressing Kv1.1, patch-clamp, read-out: IC50 for inhibition of Kv1.1. As to the method: (§1) HEK293 cells stably expressing Kv1.X (Kv1.1, Kv1.2, Kv1.3, Kv1.4, Kv1.5) potassium channels were cultured in DMEM medium containing 10% fetal bovine serum and 800 μg/mL G418 (geneticin) at a culture temperature of 37° C. and a carbon dioxide concentration of 5%.
(§2) The extracellular fluid contained […], 3.5 mM KCl, 1 mM MgCl2·6H2O, 2 mM CaCl2·2H2O, 10 mM D-glucose, 10 mM HEPES, 1.25 mM NaH2PO4·2H2O, and the pH was adjusted to 7.4 with NaOH. The intracellular fluid contained 20 mM KCl, 115 mM K-Aspartic, 1 mM MgCl2·6H2O, 5 mM EGTA, 10 mM HEPES, 2 mM Na2-ATP, and the pH was adjusted to 7.2 with KOH.
(§3) The voltage stimulation protocol for recording whole-cell Kv1.X potassium currents via patch-clamp was as follows. After formation of a whole-cell seal, the cell membrane voltage was clamped at −80 mV, and then stepped to +40 mV for 500 ms. […] Then, a slow capacitance compensation was given, and the membrane capacitance and series resistance were recorded. […]
(§4) Once the whole-cell recorded Kv1.X current stabilized, drug administration was started. […] For each cell, the current detected in the compound-free extracellular liquid was used as its own control group. […]
(§5) and then the inhibition rate corresponding to each drug concentration was calculated
(§6) Subsequently, the mean, standard deviation (SD), and standard error (SE) were calculated for the inhibition rate corresponding to each concentration. […]

The target of another assay is Kv1.3 potassium channel (Homo sapiens, UniProt P22001). Nature of the assay: Whole-cell patch-clamp assay for inhibitory activity against Kv1.3 (peak current). The following applies: HEK293 cells stably expressing Kv1.3, patch-clamp. A digest of the protocol:
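Whole-cell currents evoked by a step from −80 mV holding to +40 mV for 500 ms at room temperature. Concentrations perfused cumulatively, low to high, each for 5 min or until steady state. Peak current normalised to each cell's compound-free control; IC50 from nonlinear fit, ≥3 cells per concentration.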
A general note: Patch clamp records ionic current or voltage across a cell membrane.

For a further assay, the target named is Kv1.4 potassium channel (Homo sapiens, UniProt P22459). Briefly: Whole-cell patch-clamp assay for inhibitory activity against Kv1.4 (peak current). Conditions: HEK293 cells stably expressing Kv1.4, patch-clamp, read-out: IC50 for inhibition of Kv1.4. As to the method: as §1, §2, §3, §4, §5, §6
Sequence of Kv1.4 potassium channel (P22459 whole entry): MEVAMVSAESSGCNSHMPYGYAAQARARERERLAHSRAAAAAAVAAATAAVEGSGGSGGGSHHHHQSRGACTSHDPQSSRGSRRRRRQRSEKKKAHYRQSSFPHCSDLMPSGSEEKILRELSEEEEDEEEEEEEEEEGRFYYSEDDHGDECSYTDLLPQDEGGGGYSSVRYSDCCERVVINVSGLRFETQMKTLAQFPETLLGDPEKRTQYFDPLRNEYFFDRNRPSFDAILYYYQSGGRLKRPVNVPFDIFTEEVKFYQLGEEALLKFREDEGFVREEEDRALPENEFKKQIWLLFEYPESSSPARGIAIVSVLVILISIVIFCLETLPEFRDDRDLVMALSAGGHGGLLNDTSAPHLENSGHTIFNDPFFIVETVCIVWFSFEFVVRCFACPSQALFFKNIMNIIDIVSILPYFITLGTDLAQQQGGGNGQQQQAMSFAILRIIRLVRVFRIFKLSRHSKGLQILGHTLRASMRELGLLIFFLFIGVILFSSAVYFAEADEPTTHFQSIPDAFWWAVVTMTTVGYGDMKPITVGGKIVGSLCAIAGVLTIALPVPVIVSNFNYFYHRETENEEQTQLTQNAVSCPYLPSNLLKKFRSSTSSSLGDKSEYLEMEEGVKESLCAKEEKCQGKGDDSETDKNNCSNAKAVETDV
The next assay addresses T2, hERG potassium channel (Homo sapiens, UniProt Q12809).
T2 construct: expressed in transfected cells
Nature of the assay: Whole-cell voltage clamp assay for inhibitory activity against hERG. The following applies: CHO cells stably expressing hERG, peak tail current at -50 mV, read-out: IC50 for inhibition of hERG. As to the method:
CHO cells stably expressing hERG were cultured in 35 mm diameter cell culture dishes at 37° C. in a 5% CO2 incubator. The cells were passaged at a ratio of 1:5 every 48 h. The culture medium recipe was as follows: 90% F12 (Invitrogen), 10% fetal bovine serum (Gibco), 100 µg/mL G418 (Invitrogen), and 100 µg/mL Hygromycin B (Invitrogen). On the day of the test, the cell culture fluid was aspirated, and the cells were rinsed once with the extracellular fluid. […] The digestion solution was then aspirated, and the cells were resuspended with the extracellular fluid and transferred to an experimental dish for electrophysiological recording for later use. hERG potassium channel currents were recorded at room temperature by the whole-cell voltage clamp technique in the CHO cells stably expressing hERG potassium channels. Glass microelectrodes were formed by pulling a glass electrode blank (BF150-86-10, Sutter) using a puller. The tip resistance after perfusion with the electrode internal solution was about 2-5 MΩ. […] The clamping voltage and data recording were controlled and recorded by a computer with the pClamp software, with a sampling frequency of 10 kHz and a filtering frequency of 2 kHz. […] This voltage stimulation was applied every 5 s, and after the hERG potassium currents were determined to be stable (for 1 min), the drug administration process was started. […]

The target in a further assay is Kv1.5 potassium channel (Homo sapiens, UniProt P22460). Nature of the assay: Whole-cell patch-clamp assay for inhibitory activity against Kv1.5 (steady state current). Conditions: HEK293 cells stably expressing Kv1.5, patch-clamp, read-out: IC50 for inhibition of Kv1.5. As to the method: as §1, §2, §3, §4, §5, §6
Sequence of Kv1.5 potassium channel (P22460 whole entry): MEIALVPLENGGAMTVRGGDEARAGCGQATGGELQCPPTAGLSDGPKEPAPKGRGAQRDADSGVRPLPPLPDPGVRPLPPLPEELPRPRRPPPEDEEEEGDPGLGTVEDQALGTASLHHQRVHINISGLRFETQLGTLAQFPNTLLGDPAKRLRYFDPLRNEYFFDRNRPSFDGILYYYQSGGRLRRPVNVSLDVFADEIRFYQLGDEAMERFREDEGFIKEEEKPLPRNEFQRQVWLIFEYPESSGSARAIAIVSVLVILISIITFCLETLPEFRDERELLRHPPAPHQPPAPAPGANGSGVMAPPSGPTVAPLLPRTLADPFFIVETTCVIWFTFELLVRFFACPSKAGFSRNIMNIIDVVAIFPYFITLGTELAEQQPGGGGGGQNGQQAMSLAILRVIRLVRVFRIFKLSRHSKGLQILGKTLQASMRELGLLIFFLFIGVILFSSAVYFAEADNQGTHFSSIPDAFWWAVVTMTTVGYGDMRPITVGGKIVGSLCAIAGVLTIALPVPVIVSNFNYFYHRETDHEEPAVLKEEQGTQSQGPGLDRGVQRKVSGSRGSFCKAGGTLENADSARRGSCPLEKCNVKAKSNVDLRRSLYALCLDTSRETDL
The target in the next assay is T3, Kv1.2 potassium channel (Homo sapiens, UniProt P16389).
T3 construct: expressed in transfected cells
T3 sequence (P16389 whole entry): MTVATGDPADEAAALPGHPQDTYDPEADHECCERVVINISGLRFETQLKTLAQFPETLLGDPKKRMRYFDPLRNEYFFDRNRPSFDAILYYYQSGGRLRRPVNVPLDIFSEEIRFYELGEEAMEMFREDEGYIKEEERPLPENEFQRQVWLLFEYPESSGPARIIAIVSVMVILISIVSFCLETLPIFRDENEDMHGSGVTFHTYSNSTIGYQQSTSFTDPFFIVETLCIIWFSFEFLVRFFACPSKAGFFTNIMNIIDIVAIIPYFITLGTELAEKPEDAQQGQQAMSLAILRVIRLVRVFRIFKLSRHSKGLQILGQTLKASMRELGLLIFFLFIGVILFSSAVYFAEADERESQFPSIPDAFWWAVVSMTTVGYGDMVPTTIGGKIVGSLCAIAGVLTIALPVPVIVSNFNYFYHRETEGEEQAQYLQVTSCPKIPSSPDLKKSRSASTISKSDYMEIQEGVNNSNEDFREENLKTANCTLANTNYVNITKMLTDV
Nature of the assay: Whole-cell patch-clamp assay for inhibitory activity against Kv1.2 (steady state current). Conditions: HEK293 cells stably expressing Kv1.2, patch-clamp, read-out: IC50 for inhibition of Kv1.2. The method, then:
as §1, §2, §3, §4, §5, §6

T1 sequence (Q09470 whole entry): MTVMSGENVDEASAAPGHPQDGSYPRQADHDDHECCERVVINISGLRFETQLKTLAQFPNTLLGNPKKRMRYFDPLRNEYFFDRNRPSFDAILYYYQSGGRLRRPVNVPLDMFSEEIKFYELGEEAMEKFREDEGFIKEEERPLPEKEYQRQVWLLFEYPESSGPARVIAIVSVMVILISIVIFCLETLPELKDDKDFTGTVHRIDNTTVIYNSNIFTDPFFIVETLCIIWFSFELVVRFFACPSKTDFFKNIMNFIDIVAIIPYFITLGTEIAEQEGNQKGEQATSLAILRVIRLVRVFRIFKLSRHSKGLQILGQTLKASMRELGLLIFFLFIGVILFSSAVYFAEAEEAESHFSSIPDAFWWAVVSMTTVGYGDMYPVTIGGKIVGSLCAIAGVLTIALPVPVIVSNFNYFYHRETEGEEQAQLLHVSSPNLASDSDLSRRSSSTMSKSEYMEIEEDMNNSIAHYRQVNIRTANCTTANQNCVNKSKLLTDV
T2 sequence (Q12809 whole entry): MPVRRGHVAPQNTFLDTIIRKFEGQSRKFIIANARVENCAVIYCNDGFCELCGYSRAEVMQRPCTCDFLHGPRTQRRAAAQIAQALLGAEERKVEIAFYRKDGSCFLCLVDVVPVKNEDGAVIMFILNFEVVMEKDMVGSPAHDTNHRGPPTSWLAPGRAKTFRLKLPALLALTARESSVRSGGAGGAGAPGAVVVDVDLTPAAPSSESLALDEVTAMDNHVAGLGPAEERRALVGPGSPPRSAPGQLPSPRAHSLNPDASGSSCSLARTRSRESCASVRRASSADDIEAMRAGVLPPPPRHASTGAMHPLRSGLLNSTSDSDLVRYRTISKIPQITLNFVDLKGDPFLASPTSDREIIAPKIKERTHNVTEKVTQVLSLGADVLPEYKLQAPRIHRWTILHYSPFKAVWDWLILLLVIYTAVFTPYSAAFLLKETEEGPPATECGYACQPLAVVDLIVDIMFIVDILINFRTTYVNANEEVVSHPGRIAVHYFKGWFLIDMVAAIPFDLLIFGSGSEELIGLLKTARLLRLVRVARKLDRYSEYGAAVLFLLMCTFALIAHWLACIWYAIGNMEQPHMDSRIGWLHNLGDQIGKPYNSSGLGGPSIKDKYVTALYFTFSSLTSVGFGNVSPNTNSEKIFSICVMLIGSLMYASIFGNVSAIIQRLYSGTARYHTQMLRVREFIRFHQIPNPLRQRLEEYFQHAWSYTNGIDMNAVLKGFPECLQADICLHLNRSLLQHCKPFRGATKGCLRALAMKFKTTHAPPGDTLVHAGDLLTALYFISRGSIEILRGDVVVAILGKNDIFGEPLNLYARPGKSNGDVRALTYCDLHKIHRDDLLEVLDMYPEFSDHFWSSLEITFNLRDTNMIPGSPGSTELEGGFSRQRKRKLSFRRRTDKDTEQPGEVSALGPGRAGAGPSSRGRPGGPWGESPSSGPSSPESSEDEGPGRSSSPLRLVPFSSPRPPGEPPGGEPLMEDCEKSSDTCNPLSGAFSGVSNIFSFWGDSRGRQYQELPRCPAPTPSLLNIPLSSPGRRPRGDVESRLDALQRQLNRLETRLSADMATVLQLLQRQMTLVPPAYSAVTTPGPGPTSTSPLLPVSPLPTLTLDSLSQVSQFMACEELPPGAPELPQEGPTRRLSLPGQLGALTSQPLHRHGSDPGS
Sequence of Kv1.3 potassium channel (P22001 whole entry, the tested form may be a part): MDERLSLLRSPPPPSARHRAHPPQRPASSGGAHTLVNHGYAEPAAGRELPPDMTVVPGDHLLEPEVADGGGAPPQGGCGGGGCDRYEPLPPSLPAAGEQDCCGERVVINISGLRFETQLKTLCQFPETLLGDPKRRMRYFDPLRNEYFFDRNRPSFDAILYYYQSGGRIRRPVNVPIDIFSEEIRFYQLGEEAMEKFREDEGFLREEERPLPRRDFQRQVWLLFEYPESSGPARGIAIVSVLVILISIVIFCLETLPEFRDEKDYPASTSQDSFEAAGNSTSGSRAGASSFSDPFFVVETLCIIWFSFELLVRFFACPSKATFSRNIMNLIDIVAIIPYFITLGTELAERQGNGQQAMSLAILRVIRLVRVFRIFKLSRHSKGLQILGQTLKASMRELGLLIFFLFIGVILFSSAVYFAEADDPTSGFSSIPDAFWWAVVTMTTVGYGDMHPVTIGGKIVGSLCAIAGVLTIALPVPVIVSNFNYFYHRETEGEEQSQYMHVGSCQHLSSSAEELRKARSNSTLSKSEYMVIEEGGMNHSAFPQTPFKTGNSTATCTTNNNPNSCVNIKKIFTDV

For the compound `OCc1nnc2n1C[C@H](c1c(O)ccc(Cl)c1Cl)C2` [Example 2, (S)-3,4-dichloro-2-(3-(hydroxymethyl)-6,7-dihydro-5H-pyrrolo[2,1-c][1,2,4]triazol-6-yl)phenol], the IC50 at Kv1.1 potassium channel was > 100 µM; on Kv1.3 potassium channel it was 0.0281 µM; on Kv1.4 potassium channel, > 30 µM; on hERG potassium channel, > 30 µM; at Kv1.5 potassium channel, > 100 µM; on Kv1.2 potassium channel, > 100 µM.

For the compound `Oc1ccc(Cl)c(Cl)c1[C@@H]1Cc2nnc([C@@H]3CCOC3)n2C1` [Example 54, 3,4-Dichloro-2-((S)-3-((S)-tetrahydrofuran-3-yl)-6,7-dihydro-5H-pyrrolo[2,1-c][1,2,4]triazol-6-yl)phenol], the IC50 at Kv1.1 potassium channel was > 100 µM; at Kv1.3 potassium channel, 0.0077 µM; at Kv1.4 potassium channel it was > 30 µM; on hERG potassium channel it was > 30 µM; at Kv1.5 potassium channel it was > 100 µM; at Kv1.2 potassium channel it was > 100 µM.

For orientation: IC50 means the concentration at which inhibition is half-maximal.
